Several values for one entry are separate records, joined by “and”; a condition that tells them apart may be missing. Equal entries are not always repeated.
What was measured:
human ICMT = human ICMT (Homo sapiens (Human), UniProt O60725); assay: ICMT biochemical assay (Methyltransferase-Glo); details: ICMT membrane extract from Sf-9 cells; 30 min preincubation, 90 min reaction
MIAPaCa-2 cells = assay: Cell proliferation assay (CellTiter-Glo); type: cell-based; details: Homo sapiens, MIA PaCa-2, 72 h, 3 days
Description: Cell proliferation assay was performed using CellTiter-Glo Luminescent Cell Viability Assay (Promega) following manufacturer's instructions. The MIAPaCa-2 cells (ATCC) were treated with compounds that were serial diluted in the media (DMEM). Plates were incubated for 3 days at 37° C. in 5% CO2. After 3 days, an equal volume of Cell Titer Glo reagent was added. Plates were rocked on a rotator for 2 hours. 100 μL of each well was transferred to a 96-well opaque plate, and luminescence emitted was measured with the Tecan Safire II.

[1] = tested on: Prelamin A in MIAPaCa-2 cells; assay: Prelamin A accumulation assay (Western blot); type: cell-based; details: various concentrations, 48 hours
Description: The MIAPaCa-2 cells were seeded in 6-well plates. After seeding for 24 hours, the cells were treated with either DMSO or varying concentration of the compound and incubated for 48 hours. The cells were trypsinized and the lysate was extracted with RIPA buffer (Santa Cruz). The total protein concentration of lysate is quantified using the standard Bradford assay (Biorad protein assay, microplate standard assay).
Western blot analysis was performed using antibody against Prelamin A in MIAPaCa cells treated with compound at various concentration for 48 hours. 15.0 μg of cell lysate was run on a SDS-PAGE and then transferred to nitrocellulose membrane. The membrane was then incubated in blocking buffer [PBS (phosphate buffered saline) with 0.1% Tween 20 and 5% dry milk] at room temperature for 1 hour, followed by incubation with Prelamin A antibody (rat monoclonal antibody) at 1:2500 dilution in PBS, 0.1% Tween 20 and 5% dry milk overnight at 4° C., followed by three washes (15 minutes each wash) in PBS, 0.1% Tween 20 on the next day.
The nitrocellulose membrane was then incubated with secondary antibody solution at room temperature for 1 hour, washed three times before developed with enhanced Chemiluminescence (ECL) mixture (Amersham, Aylesbury, United Kingdom), incubated for 5 minutes and exposed using Fluor Chem E System instrument (Protein Simple).

Sequence of human ICMT (O60725 whole entry): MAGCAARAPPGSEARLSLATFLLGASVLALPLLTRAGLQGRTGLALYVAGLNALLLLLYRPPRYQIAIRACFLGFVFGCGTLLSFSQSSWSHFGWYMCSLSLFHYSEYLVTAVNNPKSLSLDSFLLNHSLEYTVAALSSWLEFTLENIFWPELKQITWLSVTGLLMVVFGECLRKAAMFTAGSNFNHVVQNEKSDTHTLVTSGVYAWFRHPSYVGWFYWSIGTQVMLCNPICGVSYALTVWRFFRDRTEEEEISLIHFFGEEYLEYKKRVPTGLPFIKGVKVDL

IC50 (human ICMT): 0.044 µM and 0.041 µM
GI50 (MIAPaCa-2 cells): 12.7 µM
SMILES: Cn1nccc1-c1cc(OCCOc2ccc(C#N)cn2)ccn1 [Compound 71, 6-(2-((2-(1-methyl-1H-pyrazol-5-yl)pyridin-4-yl)oxy)ethoxy)nicotinonitrile]
Prelamin A accumulation (Western blot) [1]: Prelamin A accumulation
